Data: US6620911B1, “Anti-cryptococcal peptides” (Arizona Board of Regents, acting for and on behalf of …, priority 1998, dated 2003)
Values after ≈ are worked out from the molar mass of the structure shown. Like-named read-outs stand apart in the source and are kept apart here.

Tests used:
[1] = dog plasma, 37° C.; cited from earlier work
Rhizopus oligosporus = assay: Broth macrodilution susceptibility testing of filamentous fungi; format: cell-based; settings: ATCC 22959
Method: (§1) Broth macrodilution susceptibility testing of Aspergillus fumigatus and Rhizopus oligosporus was performed according to a proposed standardized procedure (Espinel-Ingroff et al., Multicenter evaluation of a proposed standardized procedure for antifungal susceptibility testing of filamentous fungi, J Clin Microbiol 1997, 35: 139-43) with slight modification. To induce conidium and sporangiospore formation, A. fumigatus and R. oligosporus were grown on PDA slants at 35° C. for 6 days. Fungal slants were covered with 1 ml of sterile 0.85% NaCl, and suspensions made by gently probing the colonies with the tip of a sterile pasteur pipette. The resulting mixture of hyphal fragments and conidia or sporangiospores was withdrawn, transferred to a sterile clear microfuge tube, and heavy particles were allowed to settle for 10 min. […] Susceptibility to the synthetic peptides was then determined by broth macrodilution assays as described above for the yeast cultures. MICs for the filamentous fungi were read after 24 h.
(§2) Minimum fungicidal concentrations (MFCs) were determined by subculturing 0.1 ml from each tube with no visible growth in the MIC broth macrodilution series onto drug-free SDA plates. […]

Aspergillus fumigatus = assay: as above; format: cell-based; settings: ATCC 96918
Method: as §1, §2

Cryptococcus neoformans [2] = assay: Broth macrodilution assay (MIC, MFC), ATCC strains; format: cell-based; settings: for MFC relative to MIC: C. neoformans #14116
Method: (§3) Dolastatin 10 and modifications were screened against yeasts by the broth macrodilution assay according to the NCCLS (National Committee for Clinical Laboratory Standards, Reference Method for Broth Dilution Antifungal Susceptibility Testing of Yeasts: Approved Standard M27-A, NCCLS, Wayne, Pa., 1997). Yeasts were suspended and diluted as recommended to yield final inocula ranging from 0.5-2.5×10^3 colony forming units (CFU)/ml. Tests were performed in sterile 12×75 mm plastic tubes containing two-fold dilutions of the peptides in 0.165 M morpholinepropanesulfonic acid (MOPS)-buffered RPMI 1640 medium (pH 7.0). One tube was left drug-free for a turbidity control. Tubes were incubated without agitation at 35° C. (25° C. for C. albidus and C. laurentii). MICs were determined after 72 h for Cryptococcus, and after
(§4) 48 h for other yeast genera. The MIC was defined as the lowest concentration of compound that inhibited all visible growth of the test organism.
(§5) Minimum fungicidal concentrations (MFCs) were determined by subculturing 0.1 ml from each tube with no visible growth in the MIC broth macrodilution series onto drug-free SDA plates. The plates were incubated at 35° C. for 48 h for Cryptococcus (25° C. for C. alhidus and C. laurentii), and 35° C. for 24 h for all other yeast and filamentous fungi.

[3] = human plasma, 37° C.; cited from earlier work
[4] = tested on: fluconazole-resistant Cryptococcus neoformans; format: cell-based
From the text: (§6) Clinical isolates of C. neoformans were obtained from patient cerebrospinal fluid, blood, bone marrow, sputum, bronchial lavage and wound infections at the University of Virginia Medical Center, Strains clinically resistant to fluconazole (See: Jessup, C. J. et al, 1997; Poster #F-88, 37th ICAAC, Toronto, Canada) were provided by the Center for Medical Mycology, Case Western Reserve University. Yeast strains (except for C. albidus and C. laurentii) were maintained by single colony transfer on Sabouraud Dextrose Agar (SDA), pH 5.6 at 35° C. Cryptococcus albidus, C. laurentii and C. uniguttulatus (#66033) were maintained on SDA, pH 6.6 at 25° C., C. uniguttulatus (#34143) and C. ater on Yeast Morphology (YM) agar at 25° C. and filamentous fungi were maintained on Potato Dextrose Agar (PDA) slants at 35° C.
as §3, §4, §5

[5] = cited from earlier work
[6] = mice, intravenous injection; cited from earlier work
Cryptococcus laurentii [7] = assay: Broth macrodilution assay; format: cell-based
Method: as §3, §4, §5

Rhodotorula mucilaginosa = assay: Broth macrodilution assay; format: cell-based; settings: ATCC 9449
Method: as §3, §4, §5

Candida lusitaniae = assay: Broth macrodilution assay; format: cell-based; settings: ATCC 42720
Method: as §3, §4, §5

Cryptococcus ater = assay: Broth macrodilution assay; format: cell-based; settings: ATCC 14247
Method: as §3, §4, §5

Candida parapsilosis = assay: Broth macrodilution assay; format: cell-based; settings: ATCC 22019
Method: as §3, §4, §5

Cryptococcus albidus [8] = assay: Broth macrodilution assay; format: cell-based
Method: as §3, §4, §5

Candida glabrata [9] = assay: Broth macrodilution assay; format: cell-based; settings: ATCC 90030
Method: as §3, §4, §5

Candida albicans [10] = assay: Broth macrodilution assay; format: cell-based; settings: ATCC 90028
Method: as §3, §4, §5

[11] = tested on: Cryptococcus uniguttulatus; assay: Broth macrodilution assay; format: cell-based
Method: as §3, §4, §5

[12] = tested on: Cryptococcus neoformans #90112; assay: Effect of host factors (pH, human serum) on broth macrodilution MICs and MFCs; format: cell-based
Method: as §3, §4, §5
Broth macrodilution assays were performed with RPMI prepared at pH 5, pH 6 and pH 7, and in RPMI, with and without 50% normal human serum (Lampire Biological Labs). Cryptococcus neoformans #90112 was used in each case.

Cryptococcus laurentii [13] = assay: Disk diffusion susceptibility testing; format: cell-based; settings: ATCC 66036
Method: (§7) Antimicrobial activity was assayed by disk susceptibility tests according to the NCCLS (National Committee for Clinical Laboratory Standards, Performance Standards for Antimicrobial Disk Susceptibility Tests-Sixth Edition: Approved standard M2-A6, NCCLS, Wayne, Pa., 1997). Inocula were adjusted to a density of 0.10 at 625 nm in SDA broth, and spread on SDA plates. Excess moisture was allowed to absorb for 10 min before applying dried disks containing two-fold dilutions of the drugs. Test plates were incubated at 35° C. (25° C. for C. albidus and C. laurentii), and zones of inhibition recorded after 48 h. The minimum inhibitory concentration (MIC) was defined as the lowest concentration of drug resulting in a clear zone of growth inhibition. Disk susceptibility testing of Staphylococcus aureus, Enterococcus faecalis, Escherichia coli and Neisseria gonorrhoeae was also performed.

Cryptococcus neoformans [14] = assay: Disk diffusion susceptibility testing; format: cell-based; settings: ATCC 90112
Method: as §7

Cryptococcus albidus [15] = assay: Disk diffusion susceptibility testing; format: cell-based; settings: ATCC 66030
Method: as §7

Candida glabrata [16] = assay: Disk diffusion susceptibility testing; format: cell-based; settings: ATCC 90030
Method: as §7

Candida albicans [17] = assay: Disk diffusion susceptibility testing; format: cell-based; settings: ATCC 90028
Method: as §7

[18] = mouse plasma, 37° C.; cited from earlier work
[19] = tested on: clinical isolates of C. neoformans; assay: Broth macrodilution (MIC, MFC), 19 clinical isolates; format: cell-based, Cryptococcus neoformans
From the text: as §6, §3, §4, §5

C. neoformans (#90112) = assay: Killing kinetics; format: cell-based, Cryptococcus neoformans; settings: 1x, 4x, 8x MIC, FIG. 2
Method: Overnight cultures of C. neoformans (#90112) in Ph 7.0 MOPS-buffered RPMI 1640 medium were inoculated into the same medium containing multiples of the broth macrodilution MIC of the antifungal peptides, or an equivalent volume of DMSO. Cultures were shaken at 35° C., and aliquots aseptically removed at various times for dilution plating.

## CC[C@H](C)[C@@H]([C@@H](CC(=O)N1CCC[C@H]1[C@H](OC)[C@@H](C)C(=O)N[C@@H](Cc1ccccc1)c1nccs1)OC)N(C)C(=O)[C@@H](NC(=O)[C@H](C(C)C)N(C)C)C(C)C [1a, dolastatin 10]
[1]
  stable in plasma: at least 24 h
Rhizopus oligosporus
  MIC: >50 µg/mL
Aspergillus fumigatus
  MIC: >50 µg/mL
Cryptococcus neoformans [2]; ATCC 14116
  MFC: 6.25 µg/mL (≈ 7.96 µM)
  MIC: 3.12 µg/mL (≈ 3.97 µM)
Cryptococcus neoformans [2]; ATCC 32045
  MFC: 1.56 µg/mL (≈ 1.99 µM)
  MIC: 0.78 µg/mL (≈ 0.993 µM)
Cryptococcus neoformans [2]; ATCC 66031
  MFC: 1.56 µg/mL (≈ 1.99 µM)
  MIC: 0.78 µg/mL (≈ 0.993 µM)
Cryptococcus neoformans [2]; ATCC 90112
  MFC: 1.56 µg/mL (≈ 1.99 µM)
  MIC: 0.78 µg/mL (≈ 0.993 µM)
[3]
  stable in plasma: at least 24 h
[4]; strain 94-2011
  MFC: 1.56 µg/mL (≈ 1.99 µM)
  MIC: 0.78 µg/mL (≈ 0.993 µM)
[4]; strain 94-2406
  MFC: 0.0975 µg/mL (≈ 0.124 µM)
  MIC: 0.0487 µg/mL (≈ 0.062 µM)
[4]; strain 94-2483
  MFC: 0.39 µg/mL (≈ 0.497 µM)
  MIC: 0.195 µg/mL (≈ 0.248 µM)
[4]; strain 95-2792
  MFC: 3.12 µg/mL (≈ 3.97 µM)
  MIC: 0.78 µg/mL (≈ 0.993 µM)
[5]; doses up to 200 μg/m^2
  toxicity in patients with advanced solid tumors: minimal toxicity
[5]; doses up to 455 μg/m^2
  toxicity in human cancer clinical trials: minimal toxicity
[6]
  estimated elimination half-life: 5.6 h
Cryptococcus laurentii [7]; ATCC 18803
  MIC: >50 µg/mL
Cryptococcus laurentii [7]; ATCC 34142
  MIC: >50 µg/mL
Cryptococcus laurentii [7]; ATCC 66036
  MIC: >50 µg/mL
Rhodotorula mucilaginosa
  MIC: >50 µg/mL
Candida lusitaniae
  MIC: >50 µg/mL
Cryptococcus ater
  MIC: >50 µg/mL
Candida parapsilosis
  MIC: >50 µg/mL
Cryptococcus albidus [8]; ATCC 10666
  MIC: >50 µg/mL
Cryptococcus albidus [8]; ATCC 34140
  MIC: >50 µg/mL
Cryptococcus albidus [8]; ATCC 66030
  MIC: >50 µg/mL
Candida glabrata [9]
  MFC: >50 µg/mL
  MIC: >50 µg/mL
Candida albicans [10]
  MFC: >25 µg/mL
  MIC: >50 µg/mL
[11]; ATCC 34143
  MIC: >50 µg/mL
[11]; ATCC 66033
  MIC: >50 µg/mL
[12]; 50% human serum
  MFC: 1.56 µg/mL (≈ 1.99 µM)
  MIC: 0.78 µg/mL (≈ 0.993 µM)
[12]; RPMI pH 5
  MFC: >50 µg/mL
  MIC: >50 µg/mL
[12]; RPMI pH 6
  MFC: 25 µg/mL (≈ 31.8 µM)
  MIC: 6.25 µg/mL (≈ 7.96 µM)
[12]; RPMI pH 7
  MFC: 1.56 µg/mL (≈ 1.99 µM)
  MIC: 0.78 µg/mL (≈ 0.993 µM)
[12]; no serum
  MFC: 1.56 µg/mL (≈ 1.99 µM)
  MIC: 0.78 µg/mL (≈ 0.993 µM)
Cryptococcus laurentii [13]
  MIC: >100 μg/disk
Cryptococcus neoformans [14]
  MIC: 25-50 μg/disk
Cryptococcus albidus [15]
  MIC: >100 μg/disk
Candida glabrata [16]
  MIC: >100 μg/disk
Candida albicans [17]
  MIC: >100 μg/disk
[18]
  stable in plasma: at least 24 h

## CCC(C)C(C(CC(=O)N1CCC[C@H]1C(OC)C(C)C(=O)NC(Cc1ccccc1)C(=O)Nc1nnc(-c2ccccc2)s1)OC)N(C)C(=O)[C@@H](NC(=O)[C@H](C(C)C)N(C)C)C(C)C (stereo partly shown) [1b]
Cryptococcus neoformans [2]
  MFC relative to MIC: sixteenfold greater than MICs
Cryptococcus laurentii [13]
  MIC: >100 μg/disk
Cryptococcus neoformans [14]
  MIC: 3.12-6.25 μg/disk
Cryptococcus albidus [15]
  MIC: >100 μg/disk
Candida glabrata [16]
  MIC: >100 μg/disk
Candida albicans [17]
  MIC: >100 μg/disk

## CCC(C)C(C(CC(=O)N1CCC[C@H]1C(OC)C(C)C(=O)NC(Cc1ccccc1)C(=O)Nc1nc(SC)ns1)OC)N(C)C(=O)[C@@H](NC(=O)[C@H](C(C)C)N(C)C)C(C)C (stereo partly shown) [1c]
Cryptococcus neoformans [2]
  MFC relative to MIC: sixteenfold greater than MICs
Cryptococcus neoformans [14]
  MIC: 1.56-3.12 μg/disk
Candida glabrata [16]
  MIC: >100 μg/disk
Candida albicans [17]
  MIC: >100 μg/disk

## CCC(C)C(C(CC(=O)N1CCC[C@H]1C(OC)C(C)C(=O)NC(Cc1ccccc1)C(=O)OC)OC)N(C)C(=O)[C@@H](NC(=O)[C@H](C(C)C)N(C)C)C(C)C (stereo partly shown) [1d]
[19]; 19 clinical isolates
  MFC50: 0.39 µg/mL (≈ 0.513 µM)
  MFC90: 0.78 µg/mL (≈ 1.03 µM)
  MIC50 (MIC at which 50% of the isolates were inhibited): 0.195 µg/mL
  MIC90 (MIC at which 90% of the isolates were inhibited): 0.39 µg/mL
  clinical isolate MFCs, range: 0.0975 to 6.24 µg/mL
  share of clinical isolates with MFC/MIC ratio equal to 4: 26%
  share of clinical isolates with MFC/MIC ratio less than or equal to 2: more than 68%
[19]; 19 clinical isolates (not fluconazole-resistant strains)
  resistant clinical isolates: No resistant clinical isolates were found
[19]; clinical isolates
  recovery: MFCs after the recommended incubation period compared with one week later: no evidence of recovery
[12]; acidified RPMI
  effect of lowered pH on anticryptococcal activity: least affected by lowered pH
C. neoformans (#90112)
  fungicidal action, reductions in CFUs: most dramatic reductions in CFUs
Cryptococcus laurentii [13]
  MIC: >100 μg/disk
Cryptococcus neoformans [14]
  MIC: 3.12-6.25 μg/disk
Cryptococcus albidus [15]
  MIC: >100 μg/disk
Candida albicans [17]
  MIC: >100 μg/disk

## CCC(C)C(C(CC(=O)N1CCC[C@H]1C(OC)C(C)C(=O)NC(CCSC)C(=O)Nc1cnc2ccccc2c1)OC)N(C)C(=O)[C@@H](NC(=O)[C@H](C(C)C)N(C)C)C(C)C (stereo partly shown) [1e]
Cryptococcus neoformans [14]
  MIC: 25-50 μg/disk
Candida albicans [17]
  MIC: >100 μg/disk
